Assay results taken from US11186577B2, “Vasopressin receptor antagonists and products and methods related thereto” (BlackThorn Therapeutics, Inc., priority 2017, dated 2021).
Like-named read-outs stand apart in the source and are kept apart here.

How the values were obtained:
[1] = biological target: human Oxytocin Receptor (hOTR) (Homo sapiens (Human), UniProt P30559); assay: Oxytocin receptor antagonist assay (oxytocin-evoked calcium, FLIPR, CHEM-1-hOTR cells); assay type: cell-based; settings: read-out: OT IC50
Summary of the method: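 Antagonist mode in CHEM-1-hOTR cells loaded with Calcium-6 dye; compounds (10-point, 1:3 series) preincubated 15 min at 37 °C, then oxytocin added at daily-determined EC80 in HBSS/20 mM HEPES with 0.1% BSA. Fluorescence (ex 470-495, em 515-575 nm) followed 3 min on FLIPR^TETRA; concentration-dependent reduction of oxytocin response measured.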

[2] = biological target: human Arginine Vasopressin Receptor V2 (AVPR2) (Homo sapiens (Human), UniProt P30518); assay: Vasopressin V2 receptor antagonist assay (cAMP TR-FRET, 1321N1 cells); assay type: cell-based
Experimental: The purpose of the assay was to determine the inhibitory effect of synthesized compounds on the Vasopressin receptor 2. […] Arginine Vasopressin (AVP) evokes an increase in intracellular cAMP in these cells which is measured in a TR-FRET assay using a Europium cAMP tracer and ULight labelled antibody reagents contained in a LANCE Ultra cAMP kit (Perkin Elmer #TRF0263). […] Test compounds were assessed for their ability to affect the magnitude of the response to AVP, with antagonists showing a concentration-dependent decrease in the AVP-mediated reduction in TR-FRET signal.
cAMPZen V2 assay ready cells were thawed at 37° C. and resuspended directly from frozen in 9 ml growth medium consisting of DMEM supplemented with 10% v/v fetal bovine serum, 1× non-essential amino acids, and 1 mM sodium pyruvate. Cells were spun at 1000 rpm for 3 minutes and the supernatant was carefully removed and discarded. The pellet was resuspended in 5 ml stimulation buffer and the cell density determined using the Vi-Cell automated cell counter. The cell suspension was diluted to a 0.2×10^6/ml suspension ready for plating. […] Stimulation buffer consisted of HBSS (+Ca/+Mg) supplemented with 5 mM HEPES, 0.1% BSA stabiliser and 0.5 mM IBMX.
At the start of each assay day the potency of AVP was assessed and an EC80 concentration determined for subsequent compound profiling. Assays were performed by first an addition of 2.5 μl of control or test compound at 4× final concentration in stimulation buffer followed by 2.5 μl of AVP at 4× final concentration in stimulation buffer. After a 1 hour reaction, detection reagents were added by first an addition of 5 μl EU-cAMP tracer, followed by 5 μl ULight-anti-cAMP both diluted as per the manufacturer's instructions. […] For compound profiling, test compounds were dispensed by the Labcyte Echo (10-point curve, 1:3 dilutions) in a target 0.1 μl volume then diluted 750-fold in stimulation buffer containing 3% DMSO prior to addition to the cells. At the end of the incubation period, 2.5 μl of AVP in stimulation buffer was added at the previously determined EC80 concentration.

[3] = MDR1-MDCK effective efflux assay (Transwell, 10 μM, 1 hour), wild-type MDCK cells; assay type: in vitro ADME; settings: dog, MDCK, pH 7.4, wild-type MDCK cells, apical to basolateral (A>B), 10 μM, 1 hour; read-out: Papp AB WT
Summary of the method: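 Wild-type and MDR1-MDCK monolayers cultured 3 days were dosed with compound at 10 μM (0.1% DMSO) in HBSS/25 mM HEPES pH 7.4, in both A>B and B>A directions, for 1 h at 37 °C. Samples were quantified by LC-MS/MS to give Papp and efflux ratio. Effective efflux ratio = ER(MDR1-MDCK)/ER(wild-type); Lucifer Yellow checked monolayer integrity.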

Sequence of human Arginine Vasopressin Receptor V2 (AVPR2) (P30518 whole entry): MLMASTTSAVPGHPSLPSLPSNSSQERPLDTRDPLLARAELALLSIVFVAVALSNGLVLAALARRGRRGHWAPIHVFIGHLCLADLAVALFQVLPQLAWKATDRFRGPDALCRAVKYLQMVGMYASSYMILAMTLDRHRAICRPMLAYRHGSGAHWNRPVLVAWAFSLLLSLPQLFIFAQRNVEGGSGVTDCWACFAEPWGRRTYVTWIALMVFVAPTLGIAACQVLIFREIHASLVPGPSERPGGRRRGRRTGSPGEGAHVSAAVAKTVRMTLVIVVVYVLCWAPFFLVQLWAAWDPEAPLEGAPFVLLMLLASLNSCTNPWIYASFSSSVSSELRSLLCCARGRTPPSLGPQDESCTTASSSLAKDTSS
Sequence of human Oxytocin Receptor (hOTR) (P30559 whole entry): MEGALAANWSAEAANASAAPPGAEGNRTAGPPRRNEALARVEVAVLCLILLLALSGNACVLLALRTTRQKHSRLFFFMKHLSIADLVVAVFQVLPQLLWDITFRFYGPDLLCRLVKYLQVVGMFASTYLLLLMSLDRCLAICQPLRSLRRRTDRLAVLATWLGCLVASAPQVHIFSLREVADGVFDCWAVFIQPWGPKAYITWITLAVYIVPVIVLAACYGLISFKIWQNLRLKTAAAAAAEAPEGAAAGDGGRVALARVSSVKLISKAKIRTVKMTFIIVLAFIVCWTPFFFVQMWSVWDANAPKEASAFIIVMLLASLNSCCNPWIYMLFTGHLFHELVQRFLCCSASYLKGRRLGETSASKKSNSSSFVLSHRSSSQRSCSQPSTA

SMILES	IC50 [1] [nM]	IC50 [2] [nM]	IC50 ([1]; in vitro antagonist assay, reference compounds) [nM]	Papp A→B at 1 h, 10 μM [3] [×10⁻⁶ cm/s]
COC(=O)N1Cc2cc(Cl)ccc2-n2c(C3CC4(C3)CN(c3ccc(F)cn3)C4)nnc2C1C (single isomer, unassigned) [Cpd 142B]	500 to 1000	> 1000		
CC(C)OC(=O)N1Cc2cc(Cl)ccc2-n2c(C3CC4(C3)CN(c3ccc(F)cn3)C4)nnc2C1C (single isomer, unassigned) [Cpd 163A]	100 to 500	> 1000		
COC(=O)N1Cc2cc(Cl)ccc2-n2c(C3CC4(C3)CN(c3ncccn3)C4)nnc2C1C (single isomer, unassigned) [Cpd 166A]	> 1000	> 1000		
COC(=O)N1Cc2cc(Cl)ccc2-n2c(C3CC4(C3)CN(c3ncc(F)cn3)C4)nnc2C1C (single isomer, unassigned) [Cpd 170A]	> 1000	500 to 1000		
CC1c2nnc(C3CC4(C3)CN(c3ncccn3)C4)n2-c2ccc(Cl)cc2CN1C(=O)OC1CC1 (single isomer, unassigned) [Cpd 171B]	> 1000	> 1000		
CC1c2nnc(C3CC4(C3)CN(c3ccc(F)cn3)C4)n2-c2ccc(Cl)cc2CN1C (single isomer, unassigned) [Cpd 179A]	> 1000	> 1000		
CC1c2nnc(C3CC4(C3)CN(c3ccc(F)cn3)C4)n2-c2ccc(Cl)cc2CN1C(=O)OC(CF)CF (single isomer, unassigned) [Cpd 203A]	100 to 500	500 to 1000		
CN1Cc2cc(Cl)ccc2-n2c(nnc2[C@H]2CC[C@H](Oc3ccccn3)CC2)C1 [balovaptan, reference compound]			> 1000	
CN1Cc2cc(Cl)ccc2-n2c(nnc2C2CC3(C2)CN(c2ccccn2)C3)C1 [compound 2]	> 1000	> 1000		
CN1Cc2cc(Cl)ccc2-n2c(nnc2C2CC3(C2)CN(c2cnccn2)C3)C1 [compound 3]	> 1000	> 1000		
CN1Cc2cc(Cl)ccc2-n2c(nnc2C2CC3(C2)CN(c2ncccc2F)C3)C1 [compound 4]	> 1000	> 1000		
CN1Cc2cc(Cl)ccc2-n2c(nnc2C2CC3(C2)CN(C(=O)C2CC2)C3)C1 [compound 28]	> 1000	> 1000		
COCCN1Cc2cc(Cl)ccc2-n2c(nnc2C2CC3(C2)CN(c2ccccn2)C3)C1 [compound 39, 8-chloro-5-(2-methoxyethyl)-1-(2-(pyridin-2-yl)-2-azaspiro[3.3]heptan-6-yl)-5,6-dihydro-4H-benzo[f][1,2,4]triazolo[4,3-a][1,4]diazepine]	> 1000	> 1000		
Clc1ccc2c(c1)CN(C1CCC1)Cc1nnc(C3CC4(C3)CN(c3ccccn3)C4)n1-2 [compound 41]	500 to 1000	< 100		
Fc1ccc(N2CC3(CC(c4nnc5n4-c4ccc(Cl)cc4CN(C4CCC4)C5)C3)C2)nc1 [compound 42]	500 to 1000	< 100		
CCN1Cc2cc(Cl)ccc2-n2c(nnc2C2CC3(C2)CN(c2ccccn2)C3)C1 [compound 45]	> 1000	100 to 500		
CCN1Cc2cc(Cl)ccc2-n2c(nnc2C2CC3(C2)CN(c2cnccn2)C3)C1 [compound 46]	> 1000	> 1000		
CC(C)N1Cc2cc(Cl)ccc2-n2c(nnc2C2CC3(C2)CN(c2cnccn2)C3)C1 [compound 47]	> 1000	> 1000		
CC(C)N1Cc2cc(Cl)ccc2-n2c(nnc2C2CC3(C2)CN(c2ccccn2)C3)C1 [compound 48]	> 1000	500 to 1000		
CCN1Cc2cc(Cl)ccc2-n2c(nnc2C2CC3(C2)CN(c2ccc(F)cn2)C3)C1 [compound 49]	> 1000	100 to 500		
CC(C)N1Cc2cc(Cl)ccc2-n2c(nnc2C2CC3(C2)CN(c2ccc(F)cn2)C3)C1 [compound 50]	> 1000	100 to 500		
FC(F)CN1Cc2cc(Cl)ccc2-n2c(nnc2C2CC3(C2)CN(c2ccccn2)C3)C1 [compound 52]	500 to 1000	100 to 500		> 20

SMILES	IC50 [1] [nM]	IC50 [2] [nM]	IC50 ([1]; in vitro antagonist assay, reference compounds) [nM]	Papp A→B at 1 h, 10 μM [3] [×10⁻⁶ cm/s]
CC(C)N1Cc2cc(Cl)ccc2-n2c(nnc2C2CC3(C2)CN(c2ncccc2F)C3)C1 [compound 54]	> 1000	500 to 1000		
Clc1ccc2c(c1)CN(C1CC1)Cc1nnc(C3CC4(C3)CN(c3ccccn3)C4)n1-2 [compound 56]	500 to 1000	100 to 500		> 20
CC(CF)N1Cc2cc(Cl)ccc2-n2c(nnc2C2CC3(C2)CN(c2ccccn2)C3)C1 (centres unmarked) [compound 58]	> 1000	500 to 1000		
FCCN1Cc2cc(Cl)ccc2-n2c(nnc2C2CC3(C2)CN(c2ccccn2)C3)C1 [compound 59]	> 1000	500 to 1000		> 20
COC(=O)N1Cc2cc(Cl)ccc2-n2c(nnc2C2CC3(C2)CN(c2ccc(F)cn2)C3)C1 [compound 61]	500 to 1000	100 to 500		> 20
CC(C)C(=O)N1Cc2cc(Cl)ccc2-n2c(nnc2C2CC3(C2)CN(c2ccc(F)cn2)C3)C1 [compound 63]	> 1000	500 to 1000		> 20
CC(=O)N1Cc2cc(Cl)ccc2-n2c(nnc2C2CC3(C2)CN(c2ccc(F)cn2)C3)C1 [compound 64]	> 1000	100 to 500		10 to 20
CCOC(=O)N1Cc2cc(Cl)ccc2-n2c(nnc2C2CC3(C2)CN(c2ccc(F)cn2)C3)C1 [compound 69]	100 to 500	100 to 500		> 20
COC(=O)N1Cc2cc(Cl)ccc2-n2c(nnc2C2CC3(C2)CN(c2ccccn2)C3)C1 [compound 70]	500 to 1000	100 to 500		> 20
CCC(=O)N1Cc2cc(Cl)ccc2-n2c(nnc2C2CC3(C2)CN(c2ccc(F)cn2)C3)C1 [compound 72]	> 1000	100 to 500		> 20
CC(CF)OC(=O)N1Cc2cc(Cl)ccc2-n2c(nnc2C2CC3(C2)CN(c2ccc(F)cn2)C3)C1 (centres unmarked) [compound 78]	100 to 500	100 to 500		> 20
O=C(OC(CF)CF)N1Cc2cc(Cl)ccc2-n2c(nnc2C2CC3(C2)CN(c2ccc(F)cn2)C3)C1 [compound 79]	100 to 500	500 to 1000		> 20
O=C(OC1CC1)N1Cc2cc(Cl)ccc2-n2c(nnc2C2CC3(C2)CN(c2ccc(F)cn2)C3)C1 [compound 90]	100 to 500	> 1000		> 20
O=C(N1Cc2cc(Cl)ccc2-c2c(C3CC4(C3)CN(c3cccnn3)C4)noc2C1)C(F)(F)F [compound 105]	100 to 500	> 1000		
O=C(C(F)F)N1Cc2cc(Cl)ccc2-n2c(nnc2C2CC3(C2)CN(c2ccccn2)C3)C1 [compound 122]	> 1000	100 to 500		> 20
O=C(C(F)F)N1Cc2cc(Cl)ccc2-n2c(nnc2C2CC3(C2)CN(C(=O)C2(F)CC2)C3)C1 [compound 134]	> 1000	> 1000		
CC(C)OC(=O)N1Cc2cc(Cl)ccc2-n2c(C3CC4(C3)CN(c3cnccn3)C4)nnc2C1C (centres unmarked) [compound 164]	100 to 500	> 1000		
COC(=O)N1Cc2cc(Cl)ccc2-n2c(C3CC4(C3)CN(c3cnccn3)C4)nnc2C1C (centres unmarked) [compound 165]	500 to 1000	> 1000		> 20
CCOC(=O)N1Cc2cc(Cl)ccc2-n2c(C3CC4(C3)CN(c3ccc(F)cn3)C4)nnc2C1C (centres unmarked) [compound 169]	100 to 500	> 1000		> 20
CC1c2nnc(C3CC4(C3)CN(c3ncc(F)cn3)C4)n2-c2ccc(Cl)cc2CN1C(=O)OC1(C)CC1 (centres unmarked) [compound 173]	100 to 500	> 1000		> 20
CC1c2nnc(C3CC4(C3)CN(c3ncccn3)C4)n2-c2ccc(Cl)cc2CN1C(=O)C1(F)CC1 (centres unmarked) [compound 175]	> 1000	> 1000		
